Measured values from patent US20230340011A1 (Asteroid Therapeutics, priority 2022, published 2023).
pEC50: −log10 of the molar value.

Target: LXRβ (Homo sapiens (Human), UniProt P55055)
Assay: In vitro assay LXRβ: PathHunter NHR CHO cells, LXRβ / Steroid Receptor Co-activator Peptide enzyme fragment complementation
Assay type: cell-based
Conditions: PathHunter NHR CHO cells, full-length human LXRβ and SRCP, chemiluminescent signal; read-out: LXRβ PPI
Method: PathHunter NHR CHO cells stably transfected with tagged full-length human LXRβ and a nuclear fusion protein containing Steroid Receptor Co-activator Peptide (SRCP). The full-length human LXRβ was tagged with the ProLink™ component of the DiscoverX Enzyme Fragment Complementation (EFC) system and the SRCP domain is fused to the enzyme acceptor component (EA) expressed in the nucleus. Cells were seeded in a total volume of 20 μL into white walled, 384-well microplates and incubated at 37° C. overnight prior to testing. Assay media contained charcoal-dextran filtered serum to reduce the level of hormones present. Final assay vehicle concentration was 1%. […] Microplates were read following signal generation with a PerkinElmer Envision instrument for chemiluminescent signal detection.

Sequence of LXRβ (P55055 whole entry, the tested form may be a part): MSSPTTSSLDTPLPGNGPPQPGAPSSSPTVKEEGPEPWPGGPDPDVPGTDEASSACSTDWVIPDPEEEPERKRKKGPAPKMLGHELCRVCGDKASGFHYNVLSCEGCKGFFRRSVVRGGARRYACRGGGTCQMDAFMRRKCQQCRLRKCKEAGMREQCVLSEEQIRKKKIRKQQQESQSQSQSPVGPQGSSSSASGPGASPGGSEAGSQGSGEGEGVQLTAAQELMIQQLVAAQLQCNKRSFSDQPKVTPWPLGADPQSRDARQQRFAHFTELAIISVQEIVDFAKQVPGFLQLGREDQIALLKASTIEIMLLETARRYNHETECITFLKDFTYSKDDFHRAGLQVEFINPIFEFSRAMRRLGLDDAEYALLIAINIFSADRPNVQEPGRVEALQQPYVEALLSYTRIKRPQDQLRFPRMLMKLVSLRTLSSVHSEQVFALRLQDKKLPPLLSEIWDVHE

Compound	pEC50
CNC(=O)C(=O)O[C@@H](C)[C@H]1CC[C@H]2[C@@H]3CC=C4C[C@@H](O)CC[C@]4(C)[C@H]3CC[C@]12C [Example 145, (S)-1-((3S,8S,9S,10R,13S,14S,17S)-3-hydroxy-10,13-dimethyl-2,3,4,7,8,9,10,11,12,13,14,15,16,17-tetradecahydro-1H-cyclopenta[a]phenanthren-17-yl)ethyl 2-(methylamino)-2-oxoacetate]	< 5.00
COCCNC(=O)OC[C@@H](C)[C@H]1CC[C@H]2[C@@H]3CC=C4C[C@@H](O)CC[C@]4(C)[C@H]3CC[C@]12C [Example 460, (2S)-2-[(1R,3aS,3bS,7S,9aR,9bS,11aS)-7-hydroxy-9a,11a-dimethyl-1H,2H,3H,3aH,3bH,4H,6H,7H,8H,9H,9aH,9bH,10H,11H,11aH-cyclopenta[a]phenanthren-1-yl]propyl N-(2-methoxyethyl)carbamate]	< 5.00
C[C@H](CCC(=O)N(C)C)[C@H]1CC[C@H]2[C@@H]3CC=C4C[C@@H](O)C[C@H](O)[C@]4(C)[C@H]3CC[C@]12C [Example 123, (R)-4-((1S,3R,8S,9S,10R,13R,14S,17R)-1,3-dihydroxy-10,13-dimethyl-2,3,4,7,8,9,10,11,12,13,14,15,16,17-tetradecahydro-1H-cyclopenta[a]phenanthren-17-yl)-N,N-dimethylpentanamide]	5.00 to 6.00
C[C@H](CCC(=O)N1CCC(OC(F)F)CC1)[C@H]1CC[C@H]2[C@@H]3CC=C4C[C@@H](O)CC[C@]4(C)[C@H]3CC[C@]12C [Example 252, (R)-1-(4-(difluoromethoxy)piperidin-1-yl)-4-((3S,8S,9S,10R,13R,14S,17R)-3-hydroxy-10,13-dimethyl-2,3,4,7,8,9,10,11,12,13,14,15,16,17-tetradecahydro-1H-cyclopenta[a]phenanthren-17-yl)pentan-1-one]	< 5.00
CON(C)C(=O)[C@H](C)C[C@@H](C)[C@H]1CC[C@H]2[C@@H]3CC=C4C[C@@H](O)CC[C@]4(C)[C@H]3CC[C@]12C [Example 141, (2R,4R)-4-[(1R,3aS,3bS,7S,9aR,9bS,11aR)-7-hydroxy-9a,11a-dimethyl-2,3,3a,3b,4,6,7,8,9,9a,9b,10,11,11a-tetradecahydro-1H-cyclopenta[a]phenanthren-1-yl]-N-methoxy-N,2-dimethylpentanamide]	< 5.00
C[C@H](CCC(=O)N1CCN(c2cncnc2)CC1)[C@H]1CC[C@H]2[C@@H]3CC=C4C[C@@H](O)CC[C@]4(C)[C@H]3CC[C@]12C [Example 222, (R)-4-((3S,8S,9S,10R,13R,14S,17R)-3-hydroxy-10,13-dimethyl-2,3,4,7,8,9,10,11,12,13,14,15,16,17-tetradecahydro-1H-cyclopenta[a]phenanthren-17-yl)-1-(4-(pyrimidin-5-yl)piperazin-1-yl)pentan-1-one]	< 5.00
C[C@H](CCC(=O)N1CCC(CNS(=O)(=O)C(F)(F)F)CC1)[C@H]1CC[C@H]2[C@@H]3CC=C4C[C@@H](O)CC[C@]4(C)[C@H]3CC[C@]12C [Example 231, 1,1,1-trifluoro-N-((1-((R)-4-((3S,8S,9S,10R,13R,14S,17R)-3-hydroxy-10,13-dimethyl-2,3,4,7,8,9,10,11,12,13,14,15,16,17-tetradecahydro-1H-cyclopenta[a]phenanthren-17-yl)pentanoyl)piperidin-4-yl)methyl)methanesulfonamide]	< 5.00
CCN(OC)C(=O)CC[C@@H](C)[C@H]1CC[C@H]2[C@@H]3CC=C4C[C@@H](O)CC[C@]4(C)[C@H]3CC[C@]12C [Example 11, (R)—N-ethyl-4-((3S,8S,9S,10R,13R,14S,17R)-3-hydroxy-10,13-dimethyl-2,3,4,7,8,9,10,11,12,13,14,15,16,17-tetradecahydro-1H-cyclopenta[a]phenanthren-17-yl)-N-methoxypentanamide]	6.00 to 6.60
C[C@H](OC(=O)C(N)=O)[C@H]1CC[C@H]2[C@@H]3CC=C4C[C@@H](O)CC[C@]4(C)[C@H]3CC[C@]12C [Example 144, (S)-1-((3S,8S,9S,10R,13S,14S,17S)-3-hydroxy-10,13-dimethyl-2,3,4,7,8,9,10,11,12,13,14,15,16,17-tetradecahydro-1H-cyclopenta[a]phenanthren-17-yl)ethyl 2-amino-2-oxoacetate]	< 5.00
C[C@H](CCC(=O)N1CCC(C)(O)CC1)[C@H]1CC[C@H]2[C@@H]3CC=C4C[C@@H](O)CC[C@]4(C)[C@H]3CC[C@]12C [Example 6, (R)-4-((3S,8S,9S,10R,13R,14S,17R)-3-hydroxy-10,13-dimethyl-2,3,4,7,8,9,10,11,12,13,14,15,16,17-tetradecahydro-1H-cyclopenta[a]phenanthren-17-yl)-1-(4-hydroxy-4-methylpiperidin-1-yl)pentan-1-one]	6.00 to 6.60
COC(=O)N1CCN(C(=O)OC[C@@H](C)[C@H]2CC[C@H]3[C@@H]4CC=C5C[C@@H](O)CC[C@]5(C)[C@H]4CC[C@]23C)CC1 [Example 238, 1-(2S)-2-[(1R,3aS,3bS,7S,9aR,9bS,11aS)-7-hydroxy-9a,11a-dimethyl-1H,2H,3H,3aH,3bH,4H,6H,7H,8H,9H,9aH,9bH,10H,11H,11aH-cyclopenta[a]phenanthren-1-yl]propyl 4-methyl piperazine-1,4-dicarboxylate]	< 5.00
C[C@H](CCC(=O)N1CCC(CNS(C)(=O)=O)CC1)[C@H]1CC[C@H]2[C@@H]3CC=C4C[C@@H](O)CC[C@]4(C)[C@H]3CC[C@]12C [Example 232, N-((1-((R)-4-((3S,8S,9S,10R,13R,14S,17R)-3-hydroxy-10,13-dimethyl-2,3,4,7,8,9,10,11,12,13,14,15,16,17-tetradecahydro-1H-cyclopenta[a]phenanthren-17-yl)pentanoyl)piperidin-4-yl)methyl)methanesulfonamide]	< 5.00
CC(=O)N1CCN(C(=O)CC[C@@H](C)[C@H]2CC[C@H]3[C@@H]4CC=C5C[C@@H](O)CC[C@]5(C)[C@H]4CC[C@]23C)C[C@H]1C [Example 278, (R)-1-((R)-4-acetyl-3-methylpiperazin-1-yl)-4-((3S,8S,9S,10R,13R,14S,17R)-3-hydroxy-10,13-dimethyl-2,3,4,7,8,9,10,11,12,13,14,15,16,17-tetradecahydro-1H-cyclopenta[a]phenanthren-17-yl)pentan-1-one]	< 5.00
C[C@H](CCC(=O)N(C)OC1CCCC1)[C@H]1CC[C@H]2[C@@H]3CC=C4C[C@@H](O)CC[C@]4(C)[C@H]3CC[C@]12C [Example 61, (R)-4-((3S,8S,9S,10R,13R,14S,17R)-3-hydroxy-10,13-dimethyl-2,3,4,7,8,9,10,11,12,13,14,15,16,17-tetradecahydro-1H-cyclopenta[a]phenanthren-17-yl)-N-(methyl)-N-cyclopentoxypentanamide]	5.00 to 6.00
C[C@H](OC(=O)CN(C)C)[C@H]1CC[C@H]2[C@@H]3CC=C4C[C@@H](O)CC[C@]4(C)[C@H]3CC[C@]12C [Example 143, (S)-1-((3S,8S,9S,10R,13S,14S,17S)-3-hydroxy-10,13-dimethyl-2,3,4,7,8,9,10,11,12,13,14,15,16,17-tetradecahydro-1H-cyclopenta[a]phenanthren-17-yl)ethyl dimethylglycinate]	< 5.00
CCCON(C)C(=O)CC[C@@H](C)[C@H]1CC[C@H]2[C@@H]3CC=C4C[C@@H](O)CC[C@]4(C)[C@H]3CC[C@]12C [Example 12, (R)-4-((3S,8S,9S,10R,13R,14S,17R)-3-hydroxy-10,13-dimethyl-2,3,4,7,8,9,10,11,12,13,14,15,16,17-tetradecahydro-1H-cyclopenta[a]phenanthren-17-yl)-N-methyl-N-propoxypentanamide]	6.00 to 6.60
Cc1nnc(N2CCN(C(=O)CC[C@@H](C)[C@H]3CC[C@H]4[C@@H]5CC=C6C[C@@H](O)CC[C@]6(C)[C@H]5CC[C@]34C)CC2)s1 [Example 225, (R)-4-((3S,8S,9S,10R,13R,14S,17R)-3-hydroxy-10,13-dimethyl-2,3,4,7,8,9,10,11,12,13,14,15,16,17-tetradecahydro-1H-cyclopenta[a]phenanthren-17-yl)-1-(4-(5-methyl-1,3,4-thiadiazol-2-yl)piperazin-1-yl)pentan-1-one]	< 5.00
C[C@H](CCC(=O)N(C)CCc1ccccn1)[C@H]1CC[C@H]2[C@@H]3CC=C4C[C@@H](O)CC[C@]4(C)[C@H]3CC[C@]12C [Example 293, (4R)-4-[(1R,3aS,3bS,7S,9aR,9bS,11aR)-7-hydroxy-9a,11a-dimethyl-1H,2H,3H,3aH,3bH,4H,6H,7H,8H,9H,9aH,9bH,10H,11H,11aH-cyclopenta[a]phenanthren-1-yl]-N-methyl-N-[2-(pyridin-2-yl)ethyl]pentanamide]	6.00 to 6.60
CC(NS(C)(=O)=O)C1CCN(C(=O)CC[C@@H](C)[C@H]2CC[C@H]3[C@@H]4CC=C5C[C@@H](O)CC[C@]5(C)[C@H]4CC[C@]23C)CC1 (stereo partly drawn) [Example 475, N-(1-(1-((R)-4-((3S,8S,9S,10R,13R,14S,17R)-3-hydroxy-10,13-dimethyl-2,3,4,7,8,9,10,11,12,13,14,15,16,17-tetradecahydro-1H-cyclopenta[a]phenanthren-17-yl)pentanoyl)piperidin-4-yl)ethyl)methanesulfonamide]	< 5.00
CON(C(=O)CC[C@@H](C)[C@H]1CC[C@H]2[C@@H]3CC=C4C[C@@H](O)CC[C@]4(C)[C@H]3CC[C@]12C)C(C)C [Example 15, (R)-4-((3S,8S,9S,10R,13R,14S,17R)-3-hydroxy-10,13-dimethyl-2,3,4,7,8,9,10,11,12,13,14,15,16,17-tetradecahydro-1H-cyclopenta[a]phenanthren-17-yl)-N-isopropyl-N-methoxypentanamide]	5.00 to 6.00
